Experiments:
[1] = method code SF-AS, from DOI: 10.1135/cccc19881862
[2] = method code G-GLC, from DOI: 10.1021/je00036a027
[3] = method code SF-AS, from DOI: 10.1248/cpb.39.458, PMID: 1829027; settings: pH 7.0
[4] = method code SF-AS, from DOI: 10.1023/a:1016392123137, PMID: 24272811; settings: pH 9.0
[5] = method code SF-RC, from DOI: 10.1002/ps.2780410303
[6] = method code SF, from DOI: 10.1016/j.bmc.2005.05.004, PMID: 15946850; settings: pH 7.4
[7] = not given; remark: listed apart in the source
[8] = not given; remark: listed apart in the source
[9] = not given; remark: listed apart in the source
[10] = not given; remark: listed apart in the source
[11] = method code SF-AS, from PMID: 5136171
[12] = from Sparatore, F.; Grieco, C.; Silipo, C.; Vittoria, A. (1979). Use of regression analysis to correlate auxin activity with chemical physical and structural properties of benzotriazole derivatives. III. …; settings: pH 5.6
[13] = not given; remark: listed apart in the source
[14] = method code SF, from DOI: 10.1021/jm061062o.s001, PMID: 17326614; settings: pH 7.4
[15] = not given; remark: listed apart in the source
[16] = not given; remark: listed apart in the source
[17] = not given; remark: listed apart in the source
[18] = from Wadhwa, L.; Chandiran, S.; Sharma, P. (2004). Alkyl esters of 6-methoxy-2-naphthylacetic acid as potential prodrugs - Synthesis, physicochemical properties, chemical stability and enzymatic …; settings: pH 7.4
[19] = not given; remark: listed apart in the source
[20] = method code SF-HPLC, from DOI: 10.1002/ps.2780310207
[21] = method code SF-GLC, from DOI: 10.1016/s0021-9673(01)83612-8; settings: pH 13.0
[22] = not given; remark: listed apart in the source
[23] = not given; remark: listed apart in the source

Molecule `O=c1[nH]ccc2c(Nc3c(Cl)cc(C(O)C(F)F)cc3Cl)nc3ccncc3c12` (configuration not stated) has a logP of 1.46.
`O=c1[nH]ccc2c(Nc3c(F)cc(F)cc3Cl)nc3ccncc3c12` gave a logP of 1.75.
`COc1ccc(COC(C(=O)O)c2ccccc2)cc1Cl` (configuration not stated) showed a logD ([1]; pH 3.4) of 2.45.
Work on `Clc1cc(Cl)c(-c2ccccc2)cc1Cl` yielded a logP [2] of 5.51.
With `CCCCCCCC(=O)OCC1OC(n2cc(F)c(=O)[nH]c2=O)CC1OC(=O)CCCCCCC` (configuration not stated) the logD [3] was 6.05.
In the case of `O=C(O)CCC(=O)c1ccc(-c2ccc(-c3ccccc3)cc2)cc1`, the logD ([1]; pH 3.5) is reported as 3.2.
In the case of `Cc1cccc(-c2cc3ccccc3c(N)n2)n1`, the logD [4] is reported as 3.18.
`CCCCC(=O)OC[C@H]1O[C@@H](n2cc(F)c(=O)[nH]c2=O)C[C@@H]1OC(=O)CCCC` gave a logD [3] of 2.72.
Work on `CSc1cnc(C2=NC(C)(C(C)C)C(=O)N2)c(C(=O)O)c1` (configuration not stated) yielded a logD ([5]; pH 2.8) of 0.75.
`OCc1nonc1-c1ccc(OCCCc2c[nH]cn2)cc1` showed a logD [6] of 1.96.
With `Nc1nc(-c2ccccn2)cc2ccccc12` the logD [4] was 2.74.
Molecule `c1ccc(-c2cc3ccccc3cn2)nc1` has a logD [4] of 3.05.
With `CCCc1cnc(C2=NC(C)(C(C)C)C(=O)N2)c(C(=O)O)c1` (configuration not stated) the logD ([5]; pH 2.8) was 1.27.
`CCOC1OC2OC3(C)CCC4C(OC5OC(C(=O)O)C(O)C(O)C5O)CCC(C1C)C24OO3` (configuration not stated) showed a logP [7] of 1.05.
With `CCCOC(=O)OC[C@@H]1O[C@H](n2ccc(N)nc2=O)CS1` the logP [8] was 0.22.
Work on `O=S(=O)(Nc1cc(Cl)c(Cl)cc1Cl)c1c(O)c(Cl)cc(Cl)c1Cl` yielded a logP [9] of 4.36.
Work on `OC1(c2ccc(Br)cc2)c2ccccc2C2=NCCN21` (configuration not stated) yielded a logP [10] of 1.9.
For `Clc1c(Cl)c(Cl)c(-c2ccccc2)c(Cl)c1Cl`, the logP [2] was 6.3.
`CCOC(=O)c1cnc2cc(OCC(C)C)c(OCC(C)C)cc2c1O` showed a logP [11] of 2.18.
`OCCCCCn1nc2ccccc2n1` showed a logD [12] of 1.93.
`CC(C)C1(C)N=C(c2ncc(S(C)(=O)=O)cc2C(=O)O)NC1=O` (configuration not stated) showed a logD ([5]; pH 2.0) of -0.05.
`[O-][n+]1onc(-c2ccc(OCCCc3c[nH]cn3)cc2)c1CO` showed a logD [6] of 1.83.
Work on `CCOC(=O)c1cnc2cc(OCCOC)c(OC)cc2c1O` yielded a logP [11] of 1.36.
Work on `Cc1cccc2cc(-c3ccccn3)nc(N)c12` yielded a logD [4] of 3.05.
In the case of `OC1(c2cccc(F)c2)c2ccccc2C2=NCCN21` (configuration not stated), the logP [10] is reported as 1.28.
For `Cc1ccc(Cc2cnc(NCCCCc3ncc(Br)cc3C)[nH]c2=O)cn1`, the logP [13] was 3.19.
With `CS(=O)(=O)CCN(CCCl)c1cc(C(N)=O)c([N+](=O)[O-])cc1[N+](=O)[O-]` the logD [14] was 0.42.
For `CC1(C)C2Cc3ssc(=S)c3C1C2` (configuration not stated), the logP [15] was 3.52.
`CS(=O)(=O)CCN(CCS(C)(=O)=O)c1cc(C(N)=O)c([N+](=O)[O-])cc1[N+](=O)[O-]` gave a logD [14] of -0.7.
With `O=C(NNC(=O)c1ccc([N+](=O)[O-])cc1)c1ccc([N+](=O)[O-])cc1` the logP [16] was 2.07.
With `CCNCc1ccc(C)cc1` the logP [17] was 2.38.
`COc1ccc2cc(CC(=O)OCC(C)C)ccc2c1` gave a logD [18] of 4.71.
Work on `N#Cc1nonc1-c1ccc(OCCCc2c[nH]cn2)cc1` yielded a logD [6] of 3.04.
`CC(C)OC(=O)OC[C@@H]1O[C@H](n2ccc(N)nc2=O)CS1` showed a logP [8] of 0.1.
Work on `CCC1(c2ccccc2)C(=O)NC(=O)N=C1OC(C)C` (configuration not stated) yielded a logP [19] of 2.22.
In the case of `CCCCCCNCc1ccc(C)cc1`, the logP [17] is reported as 4.96.
In the case of `O=S(=O)(Nc1ccc(O)cc1)c1cc(Cl)cc(Cl)c1Cl`, the logP [9] is reported as 4.18.
For `O=S(=O)(Nc1cc(Cl)c(Cl)cc1Cl)c1cc(Cl)cc(Cl)c1O`, the logP [9] was 4.32.
Molecule `Clc1ccc(C2(Cn3cncn3)CCC2)cc1` has a logP [20] of 2.13.
In the case of `CCCCNCc1ccc(C)cc1`, the logP [17] is reported as 3.49.
Work on `OCCCCn1nc2ccccc2n1` yielded a logD [12] of 1.57.
Molecule `Cc1ccc(C(=O)NNC(=O)c2ccccc2)cc1` has a logP [16] of 1.88.
With `CC(N)CC1CCCCCCC1` (configuration not stated) the logD [21] was 3.7.
Molecule `OCCCCn1nnc2ccccc21` has a logD [12] of 1.03.
In the case of `OC1(c2ccc(F)cc2)c2ccccc2C2=NCCN21` (configuration not stated), the logP [10] is reported as 0.95.
For `CC(C)(Cn1cncn1)c1ccc(F)cc1`, the logP [20] was 1.74.
`CC(O)c1cc(Cl)c(Nc2nc3ccncc3c3c(=O)[nH]ccc23)c(Cl)c1` (configuration not stated) showed a logP of 1.2.
Work on `CS(=O)(=O)CCN(CCI)c1cc(C(N)=O)c([N+](=O)[O-])cc1[N+](=O)[O-]` yielded a logD [14] of 0.74.
`Clc1ccc(C2(Cn3cncn3)CC2)cc1` gave a logP [20] of 2.21.
`CCc1c(-c2ccccc2)ssc1=S` gave a logP [15] of 4.31.
Molecule `CCOC(=O)OC[C@@H]1O[C@H](n2ccc(N)nc2=O)CS1` has a logP [8] of -0.25.
`CCCOC(=O)Cc1ccc2cc(OC)ccc2c1` showed a logD [18] of 4.14.
`CC(=O)OCC1OC(n2cc(F)c(=O)[nH]c2=O)CC1OC(C)=O` (configuration not stated) gave a logD [3] of -0.34.
`OCCCCCCn1nnc2ccccc21` showed a logD [12] of 1.71.
For `S=c1ssc2c1CCCCCCCCCC2`, the logP [15] was 5.8.
Work on `CC(C)C1(C)N=C(c2ncc(CO)cc2C(=O)O)NC1=O` (configuration not stated) yielded a logD ([5]; pH 2.5) of -0.21.
`O=C(CCCCC1CCSS1)NCCN1CCOCC1` (configuration not stated) gave a logP [22] of 1.8.
`O=C(O)C(OCc1ccccc1)c1ccccc1` (configuration not stated) showed a logD ([1]; pH 3.4) of 2.
In the case of `N#Cc1c(-c2ccc(OCCCc3c[nH]cn3)cc2)no[n+]1[O-]`, the logD [6] is reported as 2.99.
With `CCC1(c2ccccc2)C(=O)N=C(OC(C)C)NC1=O` (configuration not stated) the logP [19] was 1.79.
`CCOC1OC2OC3(C)C=C(O)C4C(C)CCC(C1C)C24OO3` (configuration not stated) showed a logP [7] of 2.7.
`CCC1(CC)C(=O)NC(=O)N(C(C)C)C1=O` showed a logP [19] of 2.36.
In the case of `Clc1cc(Cl)c(-c2ccccc2)c(Cl)c1`, the logP [2] is reported as 5.47.
Molecule `COc1cccc(OC)c1C(=O)N[C@@H]1C(=O)N2[C@@H]1SC(C)(C)[C@@H]2C(=O)O` has a logP [23] of 1.22.
Molecule `CC1(C)SC2C(NC(O)c3ccccc3)C(=O)N2C1C(=O)O` (configuration not stated) has a logP [23] of 1.4.
Molecule `CCOC(=O)Cc1ccc2cc(OC)ccc2c1` has a logD [18] of 3.04.
Work on `CCOC(=O)c1cnc2cc(OCc3ccccc3)c(OCCOC)cc2c1O` yielded a logP [11] of 1.95.
`COc1ccc(C(=O)NNC(=O)c2ccccc2)cc1` showed a logP [16] of 1.6.
For `CC1CN(CCNC(=O)OCCCCCC2CCSS2)CC(C)O1` (configuration not stated), the logP [22] was 4.2.
With `CC1(C)SC2C(NC(=O)CCOc3ccccc3)C(=O)N2C1C(=O)O` (configuration not stated) the logP [23] was 2.28.
In the case of `CCC1(CC)C(=O)N=C(OC(C)C)NC1=O`, the logP [19] is reported as 1.44.
For `O=C(NCCN1CCOCC1)OCCCCCC1CCSS1` (configuration not stated), the logP [22] was 2.9.
In the case of `CS(=O)(=O)c1cc([N+](=O)[O-])c(C(N)=O)cc1N(CCBr)CCBr`, the logD [14] is reported as 1.18.
With `CCCCCCCNCc1ccc(C)cc1` the logP [17] was 5.12.
Work on `O=C(O)CCCC(=O)c1ccc(-c2ccc(-c3ccccc3)cc2)cc1` yielded a logD ([1]; pH 3.5) of 3.35.
For `CCCCCC(=O)OCC1OC(n2cc(F)c(=O)[nH]c2=O)CC1OC(=O)CCCCC` (configuration not stated), the logD [3] was 4.25.
Work on `Fc1ccc(C2(Cn3cncn3)CCC2)cc1` yielded a logP [20] of 1.93.
With `O=C(CCCN1CCC(C(O)(c2ccccc2)c2ccccc2)CC1)c1ccccc1` the logP [13] was 4.42.
Molecule `CC1(C)S[C@@H]2[C@H](NC(=O)Cc3ccccc3)C(=O)N2[C@H]1C(=O)O` has a logP [23] of 1.83.
`O=c1[nH]ccc2c(Nc3c(Cl)cc(C4=NNCC4)cc3Cl)nc3ccncc3c12` showed a logP of 1.43.
Work on `CNCCCCc1ccccc1` yielded a logD [21] of 2.76.
For `CCCCCOC(=O)OC[C@@H]1O[C@H](n2ccc(N)nc2=O)CS1`, the logP [8] was 1.2.
Molecule `OC1(c2ccc(I)cc2)c2ccccc2C2=NCCN21` (configuration not stated) has a logP [10] of 2.2.
`CC(C)(C)c1ccc(C(O)CCCN2CCC(C(O)c3ccccc3)CC2)cc1` (configuration not stated) gave a logP [13] of 4.06.
Molecule `Cc1ncc2c(c1O)COC2c1ccc(Cl)cc1` (configuration not stated) has a logP [13] of 2.34.
`S=c1ssc(Cc2ccccc2)c1-c1ccccc1` gave a logP [15] of 4.29.
Molecule `Clc1cccc(Cl)c1-c1ccccc1` has a logP [2] of 4.93.
`O=S(=O)(Nc1ccccc1Cl)c1c(O)c(Cl)cc(Cl)c1Cl` showed a logP [9] of 3.97.
`CCCCCOC(=O)NCCN1CCOCC1` gave a logP [22] of 2.8.
Molecule `O=C(NN(C(=O)c1ccc([N+](=O)[O-])cc1)c1ccccc1)c1ccc([N+](=O)[O-])cc1` has a logP [16] of 4.18.
In the case of `COc1ccc2cc(CC(=O)OC(C)C)ccc2c1`, the logD [18] is reported as 4.
For `CCOC(=O)c1cnc2cc(OCCOC(C)C)c(OCC(C)C)cc2c1O`, the logP [11] was 2.17.

— the SangsterLogP compilation
